Measurements taken from PMC12589998, “Development and validation of a UHPLC-QqQ-MS/MS method for simultaneous determination of fifteen major components from Oroxyli seed extract in rat plasma and its application in the pharmacokinetic study” (Frontiers in Pharmacology, 2025).
Where two headings read alike, the source gives them in different places.

Assays:
[1] = Stability of the analytes in rat plasma samples under storage conditions; assay type: physicochemical; details: n = 6
Protocol: The bioanalytical method validation was evaluated for specificity, linearity, sensitivity, precision and accuracy, recovery, matrix effect, and stability to ensure compliance with the U.S. Food and Drug Administration (FDA) guidance on precise quantitative analysis ([Center for Drug Evaluation and Research of the U.S., 2018]). The assessment of specificity was conducted by comparing the chromatograms obtained from blank plasma, blank plasma spiked with the target components, and samples gathered following the oral administration of OS extract. Calibration curves were constructed by plotting the ratio for the peak area of the analyte to IS versus the concentration, with 1/x^2 serving as the weighting factor. The lower limit of quantification (LLOQ) was defined as the concentration at which a signal to noise ratio of […] 10 was achievable. The evaluation of precision and accuracy involved the analysis of six QC samples, both within a single day and over 3 consecutive days. Accuracy was expressed as the relative error (RE), whereas precision was gauged via relative standard deviation (RSD). Extraction recovery was ascertained by juxtaposing the responses of analytes in extracted samples against those in samples that were spiked post-extraction. The matrix effect was scrutinized by determining the ratio of the responses of the analytes in post-extraction spiked samples to those in the mixed standard solution. The stability of the analytes in plasma samples was explored under diverse conditions: encompassing a 12-h period in an autosampler, a 4-h interval at room temperature, three cycles of freezing–thawing, and a 7-day duration at −80 °C.
The retention times of the analyte peaks were consistent with those in the spiked samples. […] The LLOQs for chrysin, chrysin-7-O-β-D-glucuronide, hispidulin, wogonoside, quercetin, quercetin-7-O-β-D-glucoside, baicalin, baicalein, acacetin, oroxin A, oroxin B, oroxylin A, oroxylin A-7-O-β-D-glucuronide, apigenin, and scutellarein were 1.0, 2.0, 1.0, 0.3, 1.0, 0.1, 9.0, 6.0, 0.3, 6.0, 4.0, 1.0, 2.0, 0.5, and 0.3 ng/mL, respectively. In Supplementary Table S2, the RE for accuracy is between −13.77% and 12.55%, and the RSD for precision is below 14.55% (both intra- and inter-day). […] The matrix effect varied from 60.15% to 115.53%, with RSD values below 10.54%. In Supplementary Table S4, the RSD values for stability of the analytes are found to be lower than 13.98%, meaning that these components were stable under the following conditions: encompassing a 12-h period in an autosampler, a 4-h interval at room temperature, three cycles of freezing and thawing, and a 7-day duration at −80 °C.

[2] = Pharmacokinetic study in rats after oral administration of OS extract (UHPLC-QqQ-MS/MS of plasma); assay type: in vivo, rat; details: for concentration at 0.5 h / AUC(0-t) / AUC(0-inf) / Cmax / half-life / Tmax: male
Protocol: The UHPLC-QqQ-MS/MS system consisted of a 1290 UHPLC and a 6470 mass spectrometer (Agilent Technologies). Chromatographic separation was realized on utilizing an ACQUITY UPLC BEH C18 column (2.1 × 100 mm, 1.7 μm) maintained at 35 °C. The mobile phase consisting of 0.1% formic acid in water (A) and acetonitrile (B) was utilized with the elution program set at 0 min–1 min, 5% B–30% B; 1 min–4 min, 30% B– 50% B; 4 min–8 min, and 50% B–90% B. The injection volume was 5 μL, and the flow rate was 0.3 mL/min. The mass spectrometry parameters in the negative ion mode, gas temperature, flow rate, and nebulizer pressure were 300 °C, 7 L/min, and 35 psi, respectively. The mass spectra properties of the 15 analytes and the IS are illustrated in Table 1.
To 100 μL of the plasma sample, 20 μL of methanol, 20 μL of IS solution (methylparaben, 1 μg/mL), and 5 μL of formic acid were added and vortexed for a duration of 2 min. Subsequently, the mixture underwent extraction with 800 μL of acetonitrile for 3 min. Following 10 min of centrifugation at 12,000 g, the supernatant was collected and evaporated to dryness under N2 to obtain the residue. Finally, the residue was reconstituted in 50% methanol (100 μL) and utilized for analysis.
Before initiating the study, six male SD rats underwent a 12-h fasting period, during which they were granted unrestricted access to water. Then, the rats were administered an oral dose of 3 g/kg of the OS extract, which had been dissolved in 0.5% CMC-Na aqueous solution. Blood samples, approximately 200 μL each, were collected at various time points: before administration and at 0.03, 0.08, 0.17, 0.25, 0.5, 0.75, 1, 2, 4, 6, 8, 10, 12, 24, 36, and 48 h post-administration. Following 10 min of centrifugation at 6,000 g, the resultant samples were stored at −80 °C.
The developed method was effectively applied to study the pharmacokinetics in rats following oral administration of the OS extract. […] This was likely due to their low concentrations in the OS extract. Ultimately, nine components (chrysin, chrysin-7-O-β-D-glucuronide, baicalin, baicalein, oroxin A, oroxin B, oroxylin A, oroxylin A-7-O-β-D-glucuronide, and scutellarein) were successfully fitted with pharmacokinetic parameters. The average plasma concentration–time profiles of these substances are depicted in Figure 3. […] All data were presented as the mean ± standard deviation (Mean ± SD).

[3] = spiked concentration 6400 ng/mL
[4] = SD, 3 g/kg, rat plasma collected 0.5 h after oral administration of the OS extract, read-out: Concentration printed in MRM chromatogram of plasma sample (Figure 2C)
[5] = spiked concentration 1600 ng/mL

## O=c1cc(-c2ccccc2)oc2cc(O[C@@H]3O[C@H](CO)[C@@H](O)[C@H](O)[C@H]3O)c(O)c(O)c12 [Oroxin A, oroxin A]
[1]; spiked concentration 40 ng/mL
  Measured, -80°C for 7 days: 41.12 ± 0.77 ng/mL
  Measured, Autosampler for 12 h: 39.49 ± 3.13 ng/mL
  Measured, Room temperature for 4 h: 38.81 ± 2.31 ng/mL
  Measured, Three freeze-thaw cycles: 39.17 ± 2.11 ng/mL
[1]; spiked concentration 400 ng/mL
  Measured, -80°C for 7 days: 385.78 ± 15.57 ng/mL
  Measured, Autosampler for 12 h: 419.46 ± 28.69 ng/mL
  Measured, Room temperature for 4 h: 388.37 ± 19.15 ng/mL
  Measured, Three freeze-thaw cycles: 395.82 ± 21.75 ng/mL
[1]; [3]
  Measured, -80°C for 7 days: 6200.94 ± 362.67 ng/mL
  Measured, Autosampler for 12 h: 6572.01 ± 389.34 ng/mL
  Measured, Room temperature for 4 h: 6516.27 ± 414.24 ng/mL
  Measured, Three freeze-thaw cycles: 6021.13 ± 378.88 ng/mL
[2]; [4]
  concentration at 0.5 h: 1300 ng/mL
[2]; rat plasma, oral 3 g/kg OS extract, n = 6, mean ± SD, read-out: AUC(0-t)
  AUC(0-t): 3990 ng·h/mL
[2]; rat plasma, oral 3 g/kg OS extract, n = 6, mean ± SD, read-out: AUC(0-∞)
  AUC(0-inf): 4060 ng·h/mL
[2]; rat plasma, oral 3 g/kg OS extract, n = 6, mean ± SD, read-out: Cmax
  Cmax: 2890 ng/mL
[2]; rat plasma, oral 3 g/kg OS extract, n = 6, mean ± SD, read-out: T1/2 (converted)
  half-life: 3.42 ± 2.51 h
[2]; rat plasma, oral 3 g/kg OS extract, n = 6, mean ± SD, read-out: Tmax
  Tmax: 0.25 h

## O=c1cc(-c2ccccc2)oc2cc(O)cc(O)c12 [Chrysin, chrysin]
[1]; spiked concentration 10 ng/mL
  Measured, -80°C for 7 days: 9.25 ± 0.47 ng/mL
  Measured, Autosampler for 12 h: 11.26 ± 1.24 ng/mL
  Measured, Room temperature for 4 h: 10.87 ± 0.54 ng/mL
  Measured, Three freeze-thaw cycles: 9.15 ± 0.40 ng/mL
[1]; spiked concentration 100 ng/mL
  Measured, -80°C for 7 days: 91.73 ± 5.32 ng/mL
  Measured, Autosampler for 12 h: 101.85 ± 8.18 ng/mL
  Measured, Room temperature for 4 h: 99.57 ± 5.36 ng/mL
  Measured, Three freeze-thaw cycles: 90.99 ± 3.81 ng/mL
[1]; [5]
  Measured, -80°C for 7 days: 1539.20 ± 116.03 ng/mL
  Measured, Autosampler for 12 h: 1687.80 ± 77.00 ng/mL
  Measured, Room temperature for 4 h: 1601.59 ± 94.45 ng/mL
  Measured, Three freeze-thaw cycles: 1525.21 ± 82.94 ng/mL
[2]; SD, rat, in vivo, po
  concentration at 0.5 h: 73 ng/mL
[2]; SD, rat, in vivo, po, 3 g/kg
  AUC(0-inf): 589 ± 303 ng·h/mL
  AUC(0-t): 550 ± 294 ng·h/mL
  Cmax: 519 ± 197 ng/mL
  Tmax: 0.06 ± 0.03 h
  half-life: 4.25 ± 2.01 h

## COc1ccc(-c2cc(=O)c3c(O)cc(O)cc3o2)cc1 [Acacetin, acacetin]
[1]; spiked concentration 2 ng/mL
  Measured, -80°C for 7 days: 1.78 ± 0.11 ng/mL
  Measured, Autosampler for 12 h: 1.78 ± 0.15 ng/mL
  Measured, Room temperature for 4 h: 2.20 ± 0.04 ng/mL
  Measured, Three freeze-thaw cycles: 1.81 ± 0.06 ng/mL
[1]; spiked concentration 20 ng/mL
  Measured, -80°C for 7 days: 17.78 ± 0.87 ng/mL
  Measured, Autosampler for 12 h: 22.01 ± 1.07 ng/mL
  Measured, Room temperature for 4 h: 21.25 ± 1.13 ng/mL
  Measured, Three freeze-thaw cycles: 17.60 ± 1.24 ng/mL
[1]; spiked concentration 320 ng/mL
  Measured, -80°C for 7 days: 284.83 ± 15.85 ng/mL
  Measured, Autosampler for 12 h: 317.16 ± 38.69 ng/mL
  Measured, Room temperature for 4 h: 313.68 ± 7.94 ng/mL
  Measured, Three freeze-thaw cycles: 282.90 ± 15.75 ng/mL
[2]; [4]
  concentration at 0.5 h: 8 ng/mL
[2]; rat plasma after oral OS extract
  Plasma levels: too weak to obtain comprehensive pharmacokinetic curves
